Data on three molecules can be found in US20100216116A1, “VIRAL LATENCY MODEL” (priority 2007, published 2010).

Several values for one entry are separate records, joined by “and”; a condition that tells them apart may be missing. Identical values can stand only once.

Holding throughout (format): cell-based
Experiment [1] deals with dormant PRV in porcine TG neurons.
For experiment [2], the system named is pseudorabies virus (PRV) strain Becker in porcine trigeminal ganglion (TG) neurons.
The subject of experiment [3] is IE180 expression in PRV infected porcine TG neurons.
Experiment [4] has as its system HSV-1 strain F in porcine TG neurons.

For the molecule `C=C[C@@]1(C)CC(=O)[C@]2(O)[C@@]3(C)[C@@H](O)CCC(C)(C)[C@@H]3[C@H](O)[C@H](OC(C)=O)[C@@]2(C)O1` [forskolin, Forskolin], in experiment [1], the “infected neurons showing expression of late viral proteins” value is 70% and the “reactivation of PRV in neurons that contained dormant virus at 120 hpi” value is reported as 50%.

Turning to IFN-α, in experiment [2], the “TG neurons with no detectable expression of late viral antigens” value was about 90%, the “infected neurons with spread of new virus to surrounding non-neuronal cells” value is listed as about 4%, the “neurons with late viral antigen expression limited to the golgi without spread” value is about 6% and the “neurons without detectable expression of late viral proteins after withdrawal” value is 60%. In addition, in experiment [2], the “reduction of productive virus infection” value was 64% and 98%. For the same molecule, in experiment [3], the “IE180 expression in discrete nuclear foci after withdrawal” value was “no infected neurons showing IE180 protein expression in discrete nuclear foci could be detected”, the “infected neurons with IE180 in discrete nuclear compartments” value was “detected in all infected neurons”, the “infected neurons with localized nuclear IE180 expression” value was found to be 45% and the “infected neurons without any IE180 staining” value was found to be 55%. Moreover, in experiment [4], the “expression of HSV-1 gD protein after withdrawal” value is reported as “no detectable expression of HSV-1 gD protein was found in any neuron” and the “productive HSV-1 infection” value is listed as “completely abolished”.

B1: IFN-γ (protein, UniProt P01579 24-161, looked up)
Interferon gamma: QDPYVKEAENLKKYFNAGHSDVADNGTLFLGILKNWKEESDRKIMQSQIVSFYFKLFKNFKDDQSIQKSVETIKEDMNVKFFNSNKKKRDDFEKLTNYSVTDLNVQRKAIHELIQVMAELSPAAKTGKRKRSQMLFRG
For B1, in experiment [2], the “infected neurons without detectable late viral protein expression” value was “Over 90%”; the “reduction of productive virus infection” value is 45% and 81%; the “virus spread in the inner chamber” value is on record as “extensive virus spread”.
